{
  "source": "patent US11643655B2",
  "about": "“Methods for intracellular delivery and enhanced gene targeting” (CITY OF HOPE, priority 2016, dated 2023)",
  "key": {"HeLa EGFP-654 cells [1]": {"tested_on": "HeLa EGFP-654 cells", "assay": "SSO-654-mediated EGFP expression (splice switching) in HeLa EGFP-654 cells; flow cytometry, Western blot, microscopy", "assay_type": "cell-based, human"}, "[2]": {"details": "cited from earlier work"}, "PKR": {"tested_on": "PKR", "assay": "PKR expression by real-time PCR (cellular stress response) in HeLa-GFP-654 cells", "assay_type": "cell-based, human"}, "[3]": {"tested_on": "HeLa-EGFP-654 and LNCaP cells", "assay_type": "cell-based, human"}, "HeLa EGFP-654 cells [4]": {"tested_on": "HeLa EGFP-654 cells", "assay": "Cell growth and proliferation, SRB staining", "details": "two days"}, "β-catenin": {"tested_on": "β-catenin", "assay_type": "cell-based, human"}, "[5]": {"details": "cited from earlier work", "remark": "listed apart in the source"}, "[6]": {"details": "oligonucleotides delivered by gymnosis; cited from earlier work"}, "androgen receptor (AR)": {"tested_on": "androgen receptor (AR)", "assay": "ASO silencing of AR protein expression, Western blot", "assay_type": "cell-based, human", "details": "LNCaP cells; for reduction in AR protein expression: three days", "protocol": "Cells were harvested with trypsin digestion and washed once with PBS. Cell pellets were lysed in cold RIPA buffer containing protease inhibitors. Cellular RIPA lysates were sonicated for 2 seconds and then rested on ice for 5 min. Cell debris was removed by centrifugation at 12,000×g for 10 min at 4° C. Protein concentrations were determined using the Pierces BCA Protein Assay kit (Thermo Fisher Scientific, Waltham, Mass.). Aliquots of cell extracts containing 30-40 μg of protein were resolved by SDS-PAGE gel electrophoresis, and then transferred to PVDF membranes. After treatment with the appropriate primary and secondary antibodies, enhanced chemiluminescence was performed. Protein signals on the blot were quantified with the Image J program and protein expression was normalized to control=100%.\nProtein expression was quantified with ImageJ."}, "AR mRNA": {"tested_on": "AR mRNA", "assay": "AR mRNA RT-PCR in LNCaP cells", "assay_type": "cell-based, human", "details": "1 μM AR-ASO with 5 mM NH4^+, 24 hr, p<0.01", "protocol": "Values were normalized to GAPDH mRNA expression and expressed as the mean±SD, n=3. **p<0.01, Students t-test.\nRNA was extracted from cells using RNA-STAT 60 (AMS Biotechnology, Abingdon, UK) as recommended by the manufacturer. First-strand cDNA was synthesized with the Super-Script® III First-Strand Synthesis System Kit (Invitrogen, Carlsbad, Calif.). PCR was performed with Power SYBR GREEN PCR Master Mix (Thermo Fisher Scientific, Waltham, Mass.)."}, "BCL-2": {"tested_on": "BCL-2", "assay_type": "cell-based, human"}, "Malat-1": {"tested_on": "Malat-1", "assay_type": "cell-based, human"}, "eGFP mRNA": {"tested_on": "eGFP mRNA", "assay_type": "cell-based, human"}, "HDAC-2 mRNA": {"tested_on": "HDAC-2 mRNA", "assay_type": "cell-based, human"}, "HeLa EGFP-654 cells [7]": {"tested_on": "HeLa EGFP-654 cells"}, "CDR1": {"tested_on": "CDR1", "assay_type": "cell-based, human"}},
  "note": "Several values for one entry are separate records, joined by “and”; a condition that tells them apart may be missing. Equal entries are not always repeated. Entries after “also recorded” stand apart in the source; their conditions may differ. Where two headings read alike, the source gives them in different places. l = locked nucleic acid (LNA); d = 2'-deoxy (DNA)",
  "data": [
    {"molecule": "O=C1Nc2cc(Br)ccc2/C1=C1/Nc2ccccc2/C1=N\\O", "note": "[6BIO]", "values": [
      {"measurement": "frequency of splice switching (correctly spliced eGFP expression)", "setting": "HeLa EGFP-654 cells [1]", "value": "increased frequency of splice switching"}
    ]},
    {"molecule": "Nc1c(Br)cc(Br)cc1CN[C@H]1CC[C@H](O)CC1", "note": "[Ambroxol]", "values": [
      {"measurement": "pKa", "setting": "[2]", "value": 9.1},
      {"measurement": "SSO-654 activity (EGFP MFI)", "setting": "HeLa EGFP-654 cells [1]", "value": "significantly enhanced SSO-654 activity"}
    ]},
    {"molecule": "OO", "note": "[H2O2, hydrogen peroxide]", "values": [
      {"measurement": "PKR activation / expression", "setting": "PKR; oligonucleotide (SSO) combined with the treatment", "value": "increasing PKR expression"},
      {"measurement": "frequency of splice switching (correctly spliced eGFP expression)", "setting": "HeLa EGFP-654 cells [1]", "value": "increased frequency of splice switching"},
      {"measurement": "oligonucleotide (SSO) function, flow cytometry", "setting": "HeLa EGFP-654 cells [1]", "value": "able to increase oligonucleotide function"}
    ]},
    {"molecule": "Cl.N", "note": "[NH4^+, Ammonium chloride]", "values": [
      {"measurement": "cellular uptake of Cy5-ASO (Cy5 MFI)", "setting": "[3]", "value": "did not significantly affect the cellular uptake"},
      {"measurement": "effect on cell growth", "setting": "HeLa EGFP-654 cells [4]; NH4^+ alone 1 mM-2 mM", "value": "did not affect the growth"},
      {"measurement": "inhibition of cell growth", "setting": "HeLa EGFP-654 cells [4]; NH4^+ alone 5 mM, normalized to non-treated controls", "value": "about 15%"},
      {"measurement": "PKR activation / expression", "setting": "PKR", "value": "does not seem to activate the stress gene response"},
      {"measurement": "increase of β-Cat-ASO efficacy", "setting": "β-catenin", "value": "approximately two fold"},
      {"measurement": "activity of lipofected SSO-654 (EGFP MFI)", "setting": "HeLa EGFP-654 cells [1]", "value": "did not enhance the activity of the SSO-654"},
      {"measurement": "increase of SSO-654-induced EGFP protein expression", "setting": "HeLa EGFP-654 cells [1]", "value": "more than two-fold"},
      {"measurement": "increase of SSO-654 function and EGFP expression compared to SSO-654 alone", "setting": "HeLa EGFP-654 cells [1]", "value": "a minimum of five fold"},
      {"measurement": "increase of percentage of EGFP positive cells and EGFP protein expression compared to SSO-654 alone", "setting": "HeLa EGFP-654 cells [1]", "value": "nearly seven-fold"},
      {"measurement": "increase of percentage of EGFP-positive cells, NH4^+/SSO-654 vs SSO-654", "setting": "HeLa EGFP-654 cells [1]", "value": "nearly four-fold"},
      {"measurement": "oligonucleotide (SSO) function, flow cytometry", "setting": "HeLa EGFP-654 cells [1]", "value": "able to increase oligonucleotide function"},
      {"measurement": "upregulation of SSO-654-mediated EGFP expression", "setting": "HeLa EGFP-654 cells [1]", "value": "three- to five-fold"}
    ]},
    {"molecule": "CCC(=O)N1CC(=O)Nc2ccc(Br)cc2C1c1ccccc1", "note": "(stereo not drawn) [Retro-1]", "values": [
      {"measurement": "water solubility", "setting": "[5]", "value": "poorly water-soluble"},
      {"measurement": "optimal concentration for enhancing SSO and ASO efficacy", "setting": "[6]", "value": "50 to 100", "unit": "µM"}
    ]},
    {"molecule": "CC(=O)O.N", "note": "[ammonium acetate]", "values": [
      {"measurement": "effect on SSO-654-mediated EGFP expression compared with NH4^+", "setting": "HeLa EGFP-654 cells [1]", "value": "comparable effects"}
    ]},
    {"molecule": "NC1CCCCC1", "note": "[cyclohexylamine]", "values": [
      {"measurement": "SSO-654 activity (EGFP MFI)", "setting": "HeLa EGFP-654 cells [1]", "value": "significantly enhanced SSO-654 activity"}
    ]},
    {"molecule": "CCCCCCCC/C=C\\CCCCCCCC(=O)O", "note": "[oleic acid]", "values": [
      {"measurement": "SSO-654 activity (EGFP MFI)", "setting": "HeLa EGFP-654 cells [1]", "value": "significantly enhanced SSO-654 activity"}
    ]},
    {"molecule": "AR-ASO: Phosphorothioate LNA gapmer ASO targeting Androgen Receptor, 5′-ACCaagtttcttcAGC-3′ (SEQ ID NO: 6) (antisense ACCAAGTTTCTTCAGC; sugars from the 5' end l3 d10 l3, all phosphorothioate, methylation of C not given here)", "values": [
      {"measurement": "AR reduction, dose response", "setting": "androgen receptor (AR); 0.25 μM AR-ASO with 5 mM NH4^+ vs 1 μM AR-ASO alone", "value": "greater AR reduction than 1 μM AR-ASO alone"},
      {"measurement": "reduction in AR protein expression", "setting": "androgen receptor (AR); 1 μM AR-ASO alone", "value": 40, "unit": "%"},
      {"measurement": "reduction in AR protein expression", "setting": "androgen receptor (AR); 1 μM AR-ASO with 5 mM NH4^+", "value": 80, "unit": "%"},
      {"measurement": "reduction of AR mRNA expression compared with the AR-ASO alone", "setting": "AR mRNA", "value": "about 40%"},
      {"measurement": "inhibition of NH4^+ and SSO-654-mediated EGFP expression by a second ASO", "setting": "HeLa EGFP-654 cells [1]", "value": "only slight or no inhibition"}
    ]},
    {"molecule": "BCL2-ASO: Phosphorothioate LNA gapmer ASO targeting BCL-2, 5′-^mCTcccagcgtgcg^mC^mCa-3′ (SEQ ID NO: 3)", "values": [
      {"measurement": "BCL2 silencing (BCL-2 protein expression)", "setting": "BCL-2", "value": 65, "unit": "%"},
      {"measurement": "BCL-2 protein expression", "setting": "BCL-2", "value": "nearly completely depleted BCL-2 protein expression; also recorded: Some silencing of the BCL-2 protein expression"},
      {"measurement": "depletion of BCL-2 protein expression", "setting": "BCL-2", "value": "98% and 70%"},
      {"measurement": "effect of BCL2-ASO on SSO-654 activity and EGFP expression", "setting": "HeLa EGFP-654 cells [1]", "value": "diminished"},
      {"measurement": "effect of BCL2-ASO on SSO-654 function", "setting": "HeLa EGFP-654 cells [1]", "value": "did not affect SSO-654 function"}
    ]},
    {"molecule": "arsenic trioxide [As III]", "values": [
      {"measurement": "oligonucleotide uptake (Cy5-ON by gymnosis)", "setting": "[3]", "value": "No significant changes"},
      {"measurement": "Malat-1 gene expression", "setting": "Malat-1", "value": "silenced as a function of increasing As III concentrations"},
      {"measurement": "cytoplasmic oligonucleotide function (eGFP mRNA silencing by ON-eGFP)", "setting": "eGFP mRNA", "value": "some loss of oligonucleotide function"},
      {"measurement": "expression of HDAC-2 mRNA", "setting": "HDAC-2 mRNA", "value": "did not significantly change"},
      {"measurement": "cell viability", "setting": "HeLa EGFP-654 cells [7]", "value": "No significant changes"},
      {"measurement": "BCL2-ASO activity (BCL-2 protein)", "setting": "BCL-2", "value": "did not significantly increase"},
      {"measurement": "CDR-1 gene expression", "setting": "CDR1", "value": "silenced as a function of increasing As III concentrations"},
      {"measurement": "PKR activation / expression", "setting": "PKR", "value": "PKR is activated"},
      {"measurement": "β-Cat-ASO activity (β-catenin protein)", "setting": "β-catenin", "value": "did not significantly increase"},
      {"measurement": "frequency of splice switching (correctly spliced eGFP expression)", "setting": "HeLa EGFP-654 cells [1]", "value": "increased frequency of splice switching"},
      {"measurement": "upregulation of SSO-654-mediated EGFP expression", "setting": "HeLa EGFP-654 cells [1]", "value": "three- to five-fold"}
    ]},
    {"molecule": "β-Cat-ASO: Phosphorothioate LNA gapmer ASO targeting β-catenin, 5′-CCAtcttgtgatcCAT-3′ (SEQ ID NO: 5) (antisense CCATCTTGTGATCCAT; sugars from the 5' end l3 d10 l3, all phosphorothioate, methylation of C not given here)", "values": [
      {"measurement": "β-catenin gene expression", "setting": "β-catenin", "value": "nearly eliminated β-catenin gene expression"}
    ]}
  ]
}
